Test results published in patent EP0554004A2, “Cephem compounds and antibacterial agents” (KATAYAMA SEIYAKUSYO CO. Ltd., priority 1992, dated 1993).

Tests used:
A. calcoaceticos T59 = experiment: MIC against standard strains (Test Example 3); format: cell-based; conditions: A. calcoaceticos T59 (Test Example 3); read-out: MIC
Protocol: (§1) By using each test strain cultured overnight at 37°C in a Muller-Hinton broth, there was prepared a bacterial solution with a bacterial cell population of 1 x 10^6 CFU/mi of the same bouillon. The bacterial solution was inoculated into the Muller-Hinton agar media each containing respectively one test agent and, after overnight incubation at 37°C, the minimum concentration that inhibited growth of the bacteria was determined and shown as MIC also in Table 1.
(§2) The minimum growth inhibitory concentration was determined for each of the 21 standard strains shown in Table 3, according to the same method as used in Test Example 1.
(§3) In the test, FMOX (flomoxef), CTM (cefotiam) and CEZ (cefazolin) were used as control agents.

A. faecalis ATCC3750 = experiment: MIC against standard strains (Test Example 3); format: cell-based; conditions: Alcaligenes faecalis; A. faecalis ATCC3750 (Test Example 3); read-out: MIC
Protocol: as §1, §2, §3

B. subtilis ATCC6633 = experiment: MIC against standard strains (Test Example 3); format: cell-based; conditions: Bacillus subtilis; B. subtilis ATCC6633 (Test Example 3); read-out: MIC
Protocol: as §1, §2, §3

C. freundii ATCC8090 = experiment: MIC against standard strains (Test Example 3); format: cell-based; conditions: Citrobacter freundii; C. freundii ATCC8090 (Test Example 3); read-out: MIC
Protocol: as §1, §2, §3

E. cloacae ATCC13407 = experiment: MIC against standard strains (Test Example 3); format: cell-based; conditions: Enterobacter cloacae; E. cloacae ATCC13407 (Test Example 3); read-out: MIC
Protocol: as §1, §2, §3

E. coli CSH2 (RE45) = experiment: MIC against standard strains (Test Example 3); format: cell-based; conditions: Escherichia coli
Protocol: as §1, §2, §3

E. coli CSH2 (RK1) = experiment: MIC against standard strains (Test Example 3); format: cell-based; conditions: Escherichia coli
Protocol: as §1, §2, §3

E. coli NIHJ JC-2 = experiment: MIC against standard strains (Test Example 3); format: cell-based; conditions: Escherichia coli, NIHJJC2; E. coli NIHJ JC-2 (Test Example 3); read-out: MIC
Protocol: as §1, §2, §3

K. pneumoniae IFO3317 = experiment: MIC against standard strains (Test Example 3); format: cell-based; conditions: Klebsiella pneumoniae; K. pneumoniae IFO3317 (Test Example 3); read-out: MIC
Protocol: as §1, §2, §3

K. pneumoniae No. 42 = experiment: MIC against standard strains (Test Example 3); format: cell-based; conditions: Klebsiella pneumoniae; K. pneumoniae No. 42 (Test Example 3); read-out: MIC
Protocol: as §1, §2, §3

M. Morganii IFO3848 = experiment: MIC against standard strains (Test Example 3); format: cell-based; conditions: Morganella morganii; M. Morganii IFO3848 (Test Example 3); read-out: MIC
Protocol: as §1, §2, §3

M. luteus ATCC 9341 = experiment: MIC against standard strains (Test Example 3); format: cell-based; conditions: Micrococcus luteus, ATCC9341; M. luteus ATCC 9341 (Test Example 3); read-out: MIC
Protocol: as §1, §2, §3

P. aeruginosa NCTC10490 = experiment: MIC against standard strains (Test Example 3); format: cell-based; conditions: Pseudomonas aeruginosa; P. aeruginosa NCTC10490 (Test Example 3); read-out: MIC
Protocol: as §1, §2, §3

P. mirabilis IFO3849 = experiment: MIC against standard strains (Test Example 3); format: cell-based; conditions: Proteus mirabilis; P. mirabilis IFO3849 (Test Example 3); read-out: MIC
Protocol: as §1, §2, §3

P. vulugaris OX-19 = experiment: MIC against standard strains (Test Example 3); format: cell-based; conditions: P. vulugaris OX-19 (Test Example 3); read-out: MIC
Protocol: as §1, §2, §3

S. aureus 167 = experiment: MIC against standard strains (Test Example 3); format: cell-based; conditions: Staphylococcus aureus; S. aureus 167 (MRSA) (Test Example 3); read-out: MIC
Protocol: as §1, §2, §3

S. aureus 195 = experiment: MIC against standard strains (Test Example 3); format: cell-based; conditions: Staphylococcus aureus; S. aureus 195 (MRSA) (Test Example 3); read-out: MIC
Protocol: as §1, §2, §3

S. aureus 209p JC-1 = experiment: MIC against standard strains (Test Example 3); format: cell-based; conditions: Staphylococcus aureus; S. aureus 209p JC-1 (Test Example 3); read-out: MIC
Protocol: as §1, §2, §3

S. aureus Smith = experiment: MIC against standard strains (Test Example 3); format: cell-based; conditions: Staphylococcus aureus; S. aureus Smith (Test Example 3); read-out: MIC
Protocol: as §1, §2, §3

S. epidemidis IAM1296 = experiment: MIC against standard strains (Test Example 3); format: cell-based; conditions: S. epidemidis IAM1296 (Test Example 3); read-out: MIC
Protocol: as §1, §2, §3

S. marcescens IAM1184 = experiment: MIC against standard strains (Test Example 3); format: cell-based; conditions: Serratia marcescens; S. marcescens IAM1184 (Test Example 3); read-out: MIC
Protocol: as §1, §2, §3

clinically isolated MRSA = experiment: Antibacterial potency against clinically isolated MRSA (Test Example 4); format: cell-based, methicillin-resistant Staphylococcus aureus; conditions: Staphylococcus aureus, 52 strains of clinically isolated MRSA; for MIC50: concentration inhibiting growth of 50% of the strains (Test Example 4), read-out: MIC50; for MIC90: concentration inhibiting growth of 90% of the strains (Test Example 4), read-out: MIC90
Protocol: 52 strains of clinically isolated MRSA were used, and MIC was determined for each of the strains according to the standard method of the Japan Chemotherapical Society as in Test Example 1. The minimum growth inhibitory concentration which inhibited growth of 50% of the strains tested was expressed as MIC50 (µg/ml), and the minimum growth inhibitory concentration which inhibited growth of 90% of the strains was expressed as MIC90 (µg/ml).
MIC 50 and MIC 90 were determined for each of the 52 strains of clinically isolated MRSA according to the same method as used in Test Example 2.
VCM (vancomycin) was used as control agent.

SMILES | MIC (A. calcoaceticos T59) | MIC (A. faecalis ATCC3750) | MIC (B. subtilis ATCC6633) | MIC (C. freundii ATCC8090) | MIC (E. cloacae ATCC13407) | MIC (E. coli CSH2 (RE45)) | MIC (E. coli CSH2 (RK1)) | MIC (E. coli NIHJ JC-2) | MIC (K. pneumoniae IFO3317) | MIC (K. pneumoniae No. 42) | MIC (M. Morganii IFO3848) | MIC (M. luteus ATCC 9341) | MIC (P. aeruginosa NCTC10490) | MIC (P. mirabilis IFO3849) | MIC (P. vulugaris OX-19) | MIC (S. aureus 167) | MIC (S. aureus 195) | MIC (S. aureus 209p JC-1) | MIC (S. aureus Smith) | MIC (S. epidemidis IAM1296) | other results
Nc1nc(/C(=N/O)C(=O)N[C@@H]2C(=O)N3C(C(=O)[O-])=C(C[n+]4cccc(-c5csc(N)n5)c4)CS[C@H]23)cs1 [Compound (9), 7β-[2-(2-aminothiazol-4-yl)-2-syn-hydroxyiminoacetamido]-3-[[3-(2-aminothiazol-4-yl)-1-pyridinio]methyl]-3-cephem-4-carboxylic acid chloride] | 12.5 µg/mL | 1.56 µg/mL | 0.2 µg/mL | 0.2 µg/mL | 0.78 µg/mL | 0.39 µg/mL | 0.39 µg/mL | 0.2 µg/mL | 0.2 µg/mL | 0.78 µg/mL | 0.1 µg/mL | 0.05 µg/mL | 3.13 µg/mL | 0.39 µg/mL | 0.2 µg/mL | 3.13 µg/mL | 1.56 µg/mL | 0.2 µg/mL | 0.2 µg/mL | 0.05 µg/mL | MIC (S. marcescens IAM1184): 0.39 µg/mL; MIC50 (clinically isolated MRSA): 1.48 µg/mL; MIC90 (clinically isolated MRSA): 2.92 µg/mL
CCN(CC)C(=O)c1ccc[n+](CC2=C(C(=O)[O-])N3C(=O)[C@@H](NC(=O)/C(=N\O)c4csc(N)n4)[C@H]3SC2)c1 [Compound (14), 7β-[2-(2-aminothiazol-4-yl)-2-syn-hydroxyiminoacetamido]-3-[(3-N,N-diethylcarbamoyl-I-pyridinio)methyl]-3-cephem-4-carboxylic acid chloride] | 12.5 µg/mL | 3.13 µg/mL | 0.39 µg/mL | 0.78 µg/mL | 3.13 µg/mL | 0.78 µg/mL | 3.13 µg/mL | 0.78 µg/mL | 0.78 µg/mL | 3.13 µg/mL | 0.39 µg/mL | 0.2 µg/mL | 6.25 µg/mL | 1.56 µg/mL | 0.78 µg/mL | 12.5 µg/mL | 6.25 µg/mL | 0.78 µg/mL | 0.78 µg/mL | 0.39 µg/mL | MIC (S. marcescens IAM1184): 0.78 µg/mL; MIC50 (clinically isolated MRSA): 6.77 µg/mL; MIC90 (clinically isolated MRSA): 11.8 µg/mL
CNC(=O)c1ccc[n+](CC2=C(C(=O)[O-])N3C(=O)[C@@H](NC(=O)/C(=N\O)c4csc(N)n4)[C@H]3SC2)c1 [Compound (6), 7β-[2-(2-aminothiazol-4-I)-2-syn-hydroxyiminoacetamido]-3-[(3-N-methylcarbamoyl)-1-pyridinio)methyl]-3-cephem-4-carboxylic acid chloride] | 12.5 µg/mL | 3.13 µg/mL | 0.78 µg/mL | 0.39 µg/mL | 1.56 µg/mL | 0.78 µg/mL | 1.56 µg/mL | 0.39 µg/mL | 0.39 µg/mL | 0.78 µg/mL | 0.2 µg/mL | 0.1 µg/mL | 3.13 µg/mL | 0.39 µg/mL | 0.78 µg/mL | 12.5 µg/mL | 3.13 µg/mL | 0.39 µg/mL | 0.78 µg/mL | 0.2 µg/mL | MIC (S. marcescens IAM1184): 0.39 µg/mL; MIC50 (clinically isolated MRSA): 2.15 µg/mL; MIC90 (clinically isolated MRSA): 7.18 µg/mL
CNc1nc(-c2cc[n+](CC3=C(C(=O)[O-])N4C(=O)[C@@H](NC(=O)/C(=N\O)c5csc(N)n5)[C@H]4SC3)cc2)cs1 [Compound (12), 7β-[2-(2-aminothiazol-4-yl)-2-syn-hydroxyiminoacetamido]-3-[[4-(2-methylaminothiazol-4-yl)-1-pyridinio]methyl]-3-cephem-4-carboxylic acid chloride] | 50 µg/mL | 1.56 µg/mL | 0.2 µg/mL | 0.39 µg/mL | 1.56 µg/mL | 0.2 µg/mL | 0.39 µg/mL | 0.2 µg/mL | 0.1 µg/mL | 0.78 µg/mL | 0.05 µg/mL | 0.05 µg/mL | 12.5 µg/mL | 0.78 µg/mL | 0.1 µg/mL | 5.25 µg/mL | 3.13 µg/mL | 0.39 µg/mL | 0.39 µg/mL | 0.2 µg/mL | MIC (S. marcescens IAM1184): 0.78 µg/mL; MIC50 (clinically isolated MRSA): 1.86 µg/mL; MIC90 (clinically isolated MRSA): 4.61 µg/mL
Cc1nc(-c2cc[n+](CC3=C(C(=O)[O-])N4C(=O)[C@@H](NC(=O)/C(=N\O)c5csc(N)n5)[C@H]4SC3)cc2)cs1 [Compound (13), 7β-[2-(2-aminothiazol-4-yl)-2-syn-hydroxyiminoacetamido]-3-[[4-(2-methylthiazol-4-yl)-1-pyridinio]methyl]-3-cephem-4-carboxylic acid chloride] | 50 µg/mL | 1.56 µg/mL | 0.2 µg/mL | 0.2 µg/mL | 0.78 µg/mL | 0.2 µg/mL | 0.2 µg/mL | 0.2 µg/mL | 0.1 µg/mL | 0.78 µg/mL | 0.05 µg/mL | 0.05 µg/mL | 12.5 µg/mL | 0.39 µg/mL | 0.2 µg/mL | 6.25 µg/mL | 3.13 µg/mL | 0.2 µg/mL | 0.39 µg/mL | 0.2 µg/mL | MIC (S. marcescens IAM1184): 0.39 µg/mL; MIC50 (clinically isolated MRSA): 2.21 µg/mL; MIC90 (clinically isolated MRSA): 5.51 µg/mL
